In patent publication US20240307350A1, “5-METHOXY-N,N-DIMETHYLTRYPTAMINE (5-MEO-DMT) FOR TREATING DEPRESSION” (GH RESEARCH IRELAND LIMITED, priority 2019, published 2024):

Tested on: patients with treatment-resistant major depressive disorder
Experiment: Clinical trial in treatment-resistant major depressive disorder: symptom scales (MADRS, PGI-S, PGI-I, C-SSRS, BPRS)
Type: in vivo, human
Settings: for PGI-I: 1, Very much improved, 2, Much improved, to 7, Very much worse; for MADRS suicidal thoughts item: ranges from 0 to 6; for BPRS Unusual thought content / BPRS Somatic concern / BPRS Tension / BPRS Guilt feelings / BPRS Depressive Mood / BPRS Anxiety: scale of 1-7; for PGI-S: 1, Normal, not at all ill to 7, Extremely ill; for MADRS: score 0 to 60; for BPRS (total): 18 symptoms each rated 1-7; for C-SSRS Suicidal Ideation: whether any of the suicidal ideation items were present
Procedure: A clinical trial was performed in which 5-MeO-DMT free base (purity not less than 99%) was administered to patients with treatment-resistant major depressive disorder (TRD). The objectives of the study were to assess the safety and tolerability, the dose-related psychedelic effects and the effects on various measures of depression of single-day dosing of 5-MeO-DMT. The trial was reviewed and approved by the relevant national competent authority and local medical ethics committee. Patients recruited into the trial had to meet the Diagnostic and Statistical Manual of Mental Disorders-Fifth Edition (DSM-5) diagnostic criteria for single-episode or recurrent major depressive disorder and had to be treatment-resistant, both aspects as evaluated by a psychiatrist or registered psychologist. Patients who were using any psychoactive medication or substance (such as anti-depressive medication) had to discontinue such medication or substance and had to observe a wash-out period before the 5-MeO-DMT administration. On the administration day, a single dose of 12 mg 5-MeO-DMT was administered to the patients via a single inhalation as described in Example 1A. Patients were closely monitored for 3.5 hours after administration, with additional follow-up visits 1 day and 7 days after dosing. Various safety related measures (e.g., adverse event reporting, safety laboratory analyses, vital signs, electrocardiogram (ECG), Clinician Administered Dissociative States Scale (CADSS), Psychomotor Vigilance Test (PVT), Digit Symbol Substitution Test (DSST)), measures of the intensity of the psychedelic effects (e.g., Peak Psychedelic Experience Questionnaire (PPEQ), Altered States of Consciousness (ASC) Questionnaire, Mystical Experience Questionnaire (MEQ30), subjective description of the psychedelic experience), measures of depression severity (Montgomery-Åsberg Depression Rating Scale (MADRS), Patient's Global Impression of Severity scale (PGI-S), Patient's Global Impression of Improvement scale (PGI-I)), and additional psychological measures (e.g., Columbia-Suicide Severity Rating Scale (C-SSRS), Brief Psychiatric Rating Scale (BPRS)) were recorded at different time points. Psychological support via a psychologist and/or psychiatrist was available to the patients throughout the study, but no specific psychotherapy was applied, and no additional psychoactive medication was provided.
Two patients with major depressive disorder diagnosed by a psychiatrist according to DSM-5 diagnostic criteria were recruited into the study (Example 2, Table 1). The patients were considered treatment-resistant because they had not shown adequate improvement to at least two adequate courses of pharmacological therapy in the current episode of depression.

[1] = Patient 1, 2 hours after 12 mg inhaled
[2] = Patient 1, 2 hours after 12 mg inhaled, baseline 1
[3] = Patient 1, 2 hours after 12 mg inhaled, baseline 5
[4] = Patient 1, 1 day after 12 mg inhaled
[5] = Patient 1, 1 day after 12 mg inhaled, baseline 1
[6] = Patient 1, 1 day after 12 mg inhaled, baseline 5
[7] = Patient 1, 7 days after 12 mg inhaled
[8] = Patient 1, 7 days after 12 mg inhaled, baseline 1
[9] = Patient 1, 7 days after 12 mg inhaled, baseline 5
[10] = Patient 2, 2 hours after 12 mg inhaled
[11] = Patient 2, 2 hours after 12 mg inhaled, baseline 5
[12] = Patient 2, 1 day after 12 mg inhaled
[13] = Patient 2, 1 day after 12 mg inhaled, baseline 5
[14] = Patient 2, 7 days after 12 mg inhaled
[15] = Patient 2, 7 days after 12 mg inhaled, baseline 5
[16] = both patients, all assessment time points after 12 mg inhaled
[17] = single dose of 12 mg via inhalation

COc1ccc2[nH]cc(CCN(C)C)c2c1 [5-MeO-DMT, 5-methoxy-N,N-dimethyltryptamine]
% MADRS change vs. baseline [1]: −68%
PGI-I [1]: 1
MADRS suicidal thoughts item [2]: 0
BPRS Unusual thought content [2]: 1
BPRS Somatic concern (Patient 1, 2 hours after 12 mg inhaled, baseline 3): 2
BPRS Tension (Patient 1, 2 hours after 12 mg inhaled, baseline 4): 3
PGI-S [3]: 1
BPRS Guilt feelings [3]: 1
BPRS Depressive Mood (Patient 1, 2 hours after 12 mg inhaled, baseline 6): 2
BPRS Anxiety (Patient 1, 2 hours after 12 mg inhaled, baseline 7): 2
MADRS (Patient 1, 2 hours after 12 mg inhaled, baseline 31): 10
BPRS (total) (Patient 1, 2 hours after 12 mg inhaled, baseline 42): 27
C-SSRS Suicidal Ideation (Patient 1, 2 hours after 12 mg inhaled, baseline Yes): No
% MADRS change vs. baseline [4]: −74%
PGI-I [4]: 1
MADRS suicidal thoughts item [5]: 0
BPRS Unusual thought content [5]: 1
BPRS Somatic concern (Patient 1, 1 day after 12 mg inhaled, baseline 3): 1
BPRS Tension (Patient 1, 1 day after 12 mg inhaled, baseline 4): 1
PGI-S [6]: 1
BPRS Guilt feelings [6]: 1
BPRS Depressive Mood (Patient 1, 1 day after 12 mg inhaled, baseline 6): 1
BPRS Anxiety (Patient 1, 1 day after 12 mg inhaled, baseline 7): 1
MADRS (Patient 1, 1 day after 12 mg inhaled, baseline 31): 8
BPRS (total) (Patient 1, 1 day after 12 mg inhaled, baseline 42): 18
C-SSRS Suicidal Ideation (Patient 1, 1 day after 12 mg inhaled, baseline Yes): No
% MADRS change vs. baseline [7]: −90%
PGI-I [7]: 1
MADRS suicidal thoughts item [8]: 0
BPRS Unusual thought content [8]: 1
BPRS Somatic concern (Patient 1, 7 days after 12 mg inhaled, baseline 3): 1
BPRS Tension (Patient 1, 7 days after 12 mg inhaled, baseline 4): 1
PGI-S [9]: 1
BPRS Guilt feelings [9]: 1
BPRS Depressive Mood (Patient 1, 7 days after 12 mg inhaled, baseline 6): 1
BPRS Anxiety (Patient 1, 7 days after 12 mg inhaled, baseline 7): 1
MADRS (Patient 1, 7 days after 12 mg inhaled, baseline 31): 3
BPRS (total) (Patient 1, 7 days after 12 mg inhaled, baseline 42): 18
C-SSRS Suicidal Ideation (Patient 1, 7 days after 12 mg inhaled, baseline Yes): No
% MADRS change vs. baseline [10]: −73%
PGI-I [10]: 2
MADRS suicidal thoughts item (Patient 2, 2 hours after 12 mg inhaled, baseline 1): 0
BPRS Tension (Patient 2, 2 hours after 12 mg inhaled, baseline 3): 1
BPRS Somatic concern (Patient 2, 2 hours after 12 mg inhaled, baseline 4): 1
PGI-S [11]: 1
BPRS Anxiety [11]: 2
BPRS Depressive Mood [11]: 3
BPRS Guilt feelings [11]: 1
BPRS Unusual thought content (Patient 2, 2 hours after 12 mg inhaled, baseline 6): 1
MADRS (Patient 2, 2 hours after 12 mg inhaled, baseline 33): 9
BPRS (total) (Patient 2, 2 hours after 12 mg inhaled, baseline 45): 26
C-SSRS Suicidal Ideation (Patient 2, 2 hours after 12 mg inhaled, baseline No): No
% MADRS change vs. baseline [12]: −85%
PGI-I [12]: 2
MADRS suicidal thoughts item (Patient 2, 1 day after 12 mg inhaled, baseline 1): 1
BPRS Tension (Patient 2, 1 day after 12 mg inhaled, baseline 3): 1
BPRS Somatic concern (Patient 2, 1 day after 12 mg inhaled, baseline 4): 1
PGI-S [13]: 1
BPRS Anxiety [13]: 1
BPRS Depressive Mood [13]: 1
BPRS Guilt feelings [13]: 1
BPRS Unusual thought content (Patient 2, 1 day after 12 mg inhaled, baseline 6): 1
MADRS (Patient 2, 1 day after 12 mg inhaled, baseline 33): 5
BPRS (total) (Patient 2, 1 day after 12 mg inhaled, baseline 45): 19
C-SSRS Suicidal Ideation (Patient 2, 1 day after 12 mg inhaled, baseline No): No
% MADRS change vs. baseline [14]: −85%
PGI-I [14]: 2
MADRS suicidal thoughts item (Patient 2, 7 days after 12 mg inhaled, baseline 1): 0
BPRS Tension (Patient 2, 7 days after 12 mg inhaled, baseline 3): 1
BPRS Somatic concern (Patient 2, 7 days after 12 mg inhaled, baseline 4): 1
PGI-S [15]: 1
BPRS Anxiety [15]: 1
BPRS Depressive Mood [15]: 1
BPRS Guilt feelings [15]: 1
BPRS Unusual thought content (Patient 2, 7 days after 12 mg inhaled, baseline 6): 1
MADRS (Patient 2, 7 days after 12 mg inhaled, baseline 33): 5
BPRS (total) (Patient 2, 7 days after 12 mg inhaled, baseline 45): 18
C-SSRS Suicidal Ideation (Patient 2, 7 days after 12 mg inhaled, baseline No): No
standard criteria for MADRS remission (MADRS total score equal or less than 10) [16]: fulfilled
standard criteria for MADRS response (at least 50% improvement from baseline) [16]: fulfilled
time to clinical remission after a single 5-MeO-DMT administration [17]: ≤ 2 h
time to clinical response after 5-MeO-DMT administration [17]: ≤ 2 h
